Measured values: patent US8486462B2, “Glycoside having 4-methylergost-7-en-3-ol skeleton and hyperglycemia improving agent” (Morinaga Milk Industry Co., Ltd., priority 2004, dated 2013)
Like-named read-outs stand apart in the source and are kept apart here.

How the values were obtained:
db/db mice [1] = experiment: Test Example 1: hyperglycemia improving effect, random and fasting blood glucose levels in type-II diabetes model mice; assay type: in vivo; details: oral 1 mL of 15 μg/mL once a day, vs negative sample
Protocol: The final DMSO concentration was adjusted to 0.2%. The type-II diabetes model mice were orally administered 1 mL of the test sample solution once a day everyday with a sonde. […] Fasting blood glucose levels and random blood glucose levels were measured over time using Antisense II (Bayer-Sankyo Co., Ltd.). The fasting blood glucose levels were measured after 15 hours of fasting.

db/db mice [2] = details: for Hemoglobin A1c relative levels (%) 35th day from the administration: db/db mice, negative sample = 100
Protocol: As type-II diabetes model mice, 6-week old male db/db mice (purchased from Clea Japan, Inc.) were used. These mice were divided into groups, each consisting of 7 animals. The test sample was dissolved in DMSO, and the concentration of 3-O-β-D-glucopyranosyl-4-methylergost-7-en-3-ol was adjusted to 1, 5 and 15 μg/mL with physiological saline. The final DMSO concentration was adjusted to 0.2%. The type-II diabetes model mice were orally administered with 1 mL of the test sample solution once day everyday with a sonde. […] On the 35th day from the start of the administration, hemoglobin A1c levels were measured by using DCA 2000 (Bayer-Sankyo Co., Ltd.).

For `CC1C(O[C@@H]2O[C@H](CO)[C@@H](O)[C@H](O)[C@H]2O)CC[C@@]2(C)C1CC=C1[C@@H]3CC[C@H]([C@H](C)CC[C@H](C)C(C)C)[C@@]3(C)CC[C@@H]12` (stereo partly drawn) [compound 1, 3-O-β-D-glucopyranosyl-4-methylergost-7-en-3-ol], the “fasting blood glucose levels, changes over time” value (db/db mice [1]; after 15 hours of fasting) was “effect of suppressing the increases in blood glucose levels was clearly observed”, the “random blood glucose levels, changes over time” value (db/db mice [1]) was “effect of suppressing the increases in blood glucose levels was clearly observed” and the “Hemoglobin A1c relative levels (%) 35th day from the administration” value (db/db mice [2]; 1 μg oral once a day) was 98.6 ± 7.3%. The “Hemoglobin A1c relative levels (%) 35th day from the administration” value (db/db mice [2]; 5 μg oral once a day) was 89.6 ± 7.9 %, the “Hemoglobin A1c relative levels (%) 35th day from the administration” value (db/db mice [2]; 15 μg oral once a day) was 73.5 ± 8.6 % and the “hemoglobin A1c levels in comparison with negative sample” value (db/db mice [2]; repetitive administration of 5 or 15 μg, 35th day) was “statistically significant decreases”.
